# Assay results taken from ChEMBL document CHEMBL5291721, “A preclinical secondary pharmacology resource illuminates target-adverse drug reaction associations of marketed drugs” (Nat Commun, 2023).
# Where a SMILES comes first, the peptide text is derived from it.
# What was measured:
# Adenosine receptor A1 = target: T1, Adenosine receptor A1 (Homo sapiens, UniProt P30542)
# T1 sequence (P30542 whole entry): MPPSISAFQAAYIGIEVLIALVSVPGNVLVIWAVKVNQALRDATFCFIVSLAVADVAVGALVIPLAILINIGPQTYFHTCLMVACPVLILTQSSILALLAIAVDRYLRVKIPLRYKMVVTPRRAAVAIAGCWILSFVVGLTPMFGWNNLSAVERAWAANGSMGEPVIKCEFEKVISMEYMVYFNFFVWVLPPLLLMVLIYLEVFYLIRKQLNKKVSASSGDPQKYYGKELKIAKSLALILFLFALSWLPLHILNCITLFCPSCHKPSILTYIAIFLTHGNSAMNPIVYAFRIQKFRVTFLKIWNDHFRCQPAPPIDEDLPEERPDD
# [1] = target: Beta-1 adrenergic receptor (Homo sapiens, UniProt P08588); format: functional
# [2] = target: T2, Type-1 angiotensin II receptor (Homo sapiens, UniProt P30556)
# T2 sequence (P30556 whole entry): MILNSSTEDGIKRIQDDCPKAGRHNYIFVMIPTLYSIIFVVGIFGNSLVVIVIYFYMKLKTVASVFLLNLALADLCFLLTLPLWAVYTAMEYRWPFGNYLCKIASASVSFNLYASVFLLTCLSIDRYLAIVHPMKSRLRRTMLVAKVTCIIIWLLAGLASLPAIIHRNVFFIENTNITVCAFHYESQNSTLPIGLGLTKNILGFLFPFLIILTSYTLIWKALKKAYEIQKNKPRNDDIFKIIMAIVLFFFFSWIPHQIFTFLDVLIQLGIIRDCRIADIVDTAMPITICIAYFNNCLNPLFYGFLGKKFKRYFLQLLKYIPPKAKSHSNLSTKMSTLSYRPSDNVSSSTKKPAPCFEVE
# [3] = target: T3, Cholecystokinin receptor type A (Homo sapiens, UniProt P32238)
# T3 sequence (P32238 whole entry): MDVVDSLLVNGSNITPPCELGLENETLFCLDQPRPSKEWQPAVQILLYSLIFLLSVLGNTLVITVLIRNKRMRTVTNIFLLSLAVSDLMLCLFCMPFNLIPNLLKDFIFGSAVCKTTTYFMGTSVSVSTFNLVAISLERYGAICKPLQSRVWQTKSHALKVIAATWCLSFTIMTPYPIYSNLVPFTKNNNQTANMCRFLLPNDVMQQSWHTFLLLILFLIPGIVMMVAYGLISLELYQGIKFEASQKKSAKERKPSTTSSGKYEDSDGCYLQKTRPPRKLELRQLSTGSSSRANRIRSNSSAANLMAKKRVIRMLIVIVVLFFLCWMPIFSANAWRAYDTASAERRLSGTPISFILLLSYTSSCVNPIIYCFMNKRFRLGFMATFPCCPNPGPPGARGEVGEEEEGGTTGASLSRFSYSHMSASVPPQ
# [4] = target: Voltage-gated inwardly rectifying potassium channel KCNH2 (Homo sapiens, UniProt Q12809); format: functional
# [5] = target: T4, Equilibrative nucleoside transporter 1 (Homo sapiens, UniProt Q99808)
# T4 sequence (Q99808 whole entry): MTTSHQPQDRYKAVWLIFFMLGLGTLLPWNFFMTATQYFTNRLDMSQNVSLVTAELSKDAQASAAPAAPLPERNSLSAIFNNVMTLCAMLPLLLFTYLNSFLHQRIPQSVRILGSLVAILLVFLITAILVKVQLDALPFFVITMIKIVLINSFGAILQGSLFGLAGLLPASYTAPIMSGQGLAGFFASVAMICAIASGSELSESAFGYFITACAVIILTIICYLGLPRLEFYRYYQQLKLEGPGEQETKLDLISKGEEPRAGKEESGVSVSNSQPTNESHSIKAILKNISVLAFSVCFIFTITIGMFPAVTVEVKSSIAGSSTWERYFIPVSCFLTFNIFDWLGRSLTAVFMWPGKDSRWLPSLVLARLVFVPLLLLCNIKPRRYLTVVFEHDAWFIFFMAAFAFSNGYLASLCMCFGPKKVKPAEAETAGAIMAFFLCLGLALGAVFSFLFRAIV
# Mu-type opioid receptor = Mu-type opioid receptor (Homo sapiens, UniProt P35372)
# Cannabinoid receptor 1 = Cannabinoid receptor 1 (Homo sapiens, UniProt P21554); format: functional, cell-based
# [6] = target: T5, Alpha-2B adrenergic receptor (Homo sapiens, UniProt P18089)
# T5 sequence (P18089 whole entry): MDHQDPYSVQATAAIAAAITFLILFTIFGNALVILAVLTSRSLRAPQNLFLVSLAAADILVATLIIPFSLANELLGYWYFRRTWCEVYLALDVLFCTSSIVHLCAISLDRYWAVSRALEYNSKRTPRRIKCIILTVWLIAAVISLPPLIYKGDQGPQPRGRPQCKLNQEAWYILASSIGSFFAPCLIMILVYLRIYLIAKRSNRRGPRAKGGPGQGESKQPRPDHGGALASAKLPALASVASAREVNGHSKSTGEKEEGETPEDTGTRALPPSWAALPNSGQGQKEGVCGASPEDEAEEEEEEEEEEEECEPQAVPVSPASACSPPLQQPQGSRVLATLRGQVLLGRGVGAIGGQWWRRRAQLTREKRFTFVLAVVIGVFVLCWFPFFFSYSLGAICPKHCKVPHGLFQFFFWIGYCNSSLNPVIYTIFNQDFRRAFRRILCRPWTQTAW
# [7] = target: T6, Alpha-1A adrenergic receptor (Homo sapiens, UniProt P35348); format: functional, cell-based
# T6 sequence (P35348 whole entry): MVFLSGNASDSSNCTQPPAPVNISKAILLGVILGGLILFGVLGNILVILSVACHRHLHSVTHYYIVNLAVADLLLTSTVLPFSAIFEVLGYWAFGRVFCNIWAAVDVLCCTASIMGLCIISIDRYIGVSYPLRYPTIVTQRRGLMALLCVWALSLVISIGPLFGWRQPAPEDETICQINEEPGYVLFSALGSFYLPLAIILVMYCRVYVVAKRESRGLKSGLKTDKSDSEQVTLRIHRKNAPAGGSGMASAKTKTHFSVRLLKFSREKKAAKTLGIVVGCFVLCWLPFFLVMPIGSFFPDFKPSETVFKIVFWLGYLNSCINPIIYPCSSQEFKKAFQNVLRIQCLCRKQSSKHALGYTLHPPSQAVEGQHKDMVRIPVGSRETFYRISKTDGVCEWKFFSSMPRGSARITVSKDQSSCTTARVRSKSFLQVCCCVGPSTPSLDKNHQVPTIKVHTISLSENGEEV
# Note: assay procedure not described here.
# Chain of Mu-type opioid receptor (P35372 whole entry): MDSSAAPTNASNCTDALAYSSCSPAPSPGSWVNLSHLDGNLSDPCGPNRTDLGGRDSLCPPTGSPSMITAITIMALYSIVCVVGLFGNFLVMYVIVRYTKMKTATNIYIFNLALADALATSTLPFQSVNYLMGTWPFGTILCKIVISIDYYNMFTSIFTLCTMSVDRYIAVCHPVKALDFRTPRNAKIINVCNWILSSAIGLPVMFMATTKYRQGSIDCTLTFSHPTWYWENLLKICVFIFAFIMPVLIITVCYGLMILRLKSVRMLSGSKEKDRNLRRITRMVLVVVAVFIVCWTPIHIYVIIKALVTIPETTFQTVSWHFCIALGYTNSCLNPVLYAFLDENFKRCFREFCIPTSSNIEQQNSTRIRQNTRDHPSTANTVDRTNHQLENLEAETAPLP
# Chain of Cannabinoid receptor 1 (P21554 whole entry): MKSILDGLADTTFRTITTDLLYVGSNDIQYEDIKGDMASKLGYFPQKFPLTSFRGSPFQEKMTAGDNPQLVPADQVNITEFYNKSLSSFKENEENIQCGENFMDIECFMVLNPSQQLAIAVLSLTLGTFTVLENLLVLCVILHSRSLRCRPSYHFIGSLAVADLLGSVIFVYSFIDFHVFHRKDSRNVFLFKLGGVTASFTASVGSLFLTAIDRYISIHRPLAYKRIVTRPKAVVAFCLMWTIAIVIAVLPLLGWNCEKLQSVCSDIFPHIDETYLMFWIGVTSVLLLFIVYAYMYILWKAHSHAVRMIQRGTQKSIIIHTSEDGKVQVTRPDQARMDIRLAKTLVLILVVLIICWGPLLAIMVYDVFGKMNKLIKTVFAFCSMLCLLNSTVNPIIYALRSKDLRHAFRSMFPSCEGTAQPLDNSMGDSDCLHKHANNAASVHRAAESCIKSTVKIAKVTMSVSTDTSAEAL
# Chain of Voltage-gated inwardly rectifying potassium channel KCNH2 (Q12809 whole entry): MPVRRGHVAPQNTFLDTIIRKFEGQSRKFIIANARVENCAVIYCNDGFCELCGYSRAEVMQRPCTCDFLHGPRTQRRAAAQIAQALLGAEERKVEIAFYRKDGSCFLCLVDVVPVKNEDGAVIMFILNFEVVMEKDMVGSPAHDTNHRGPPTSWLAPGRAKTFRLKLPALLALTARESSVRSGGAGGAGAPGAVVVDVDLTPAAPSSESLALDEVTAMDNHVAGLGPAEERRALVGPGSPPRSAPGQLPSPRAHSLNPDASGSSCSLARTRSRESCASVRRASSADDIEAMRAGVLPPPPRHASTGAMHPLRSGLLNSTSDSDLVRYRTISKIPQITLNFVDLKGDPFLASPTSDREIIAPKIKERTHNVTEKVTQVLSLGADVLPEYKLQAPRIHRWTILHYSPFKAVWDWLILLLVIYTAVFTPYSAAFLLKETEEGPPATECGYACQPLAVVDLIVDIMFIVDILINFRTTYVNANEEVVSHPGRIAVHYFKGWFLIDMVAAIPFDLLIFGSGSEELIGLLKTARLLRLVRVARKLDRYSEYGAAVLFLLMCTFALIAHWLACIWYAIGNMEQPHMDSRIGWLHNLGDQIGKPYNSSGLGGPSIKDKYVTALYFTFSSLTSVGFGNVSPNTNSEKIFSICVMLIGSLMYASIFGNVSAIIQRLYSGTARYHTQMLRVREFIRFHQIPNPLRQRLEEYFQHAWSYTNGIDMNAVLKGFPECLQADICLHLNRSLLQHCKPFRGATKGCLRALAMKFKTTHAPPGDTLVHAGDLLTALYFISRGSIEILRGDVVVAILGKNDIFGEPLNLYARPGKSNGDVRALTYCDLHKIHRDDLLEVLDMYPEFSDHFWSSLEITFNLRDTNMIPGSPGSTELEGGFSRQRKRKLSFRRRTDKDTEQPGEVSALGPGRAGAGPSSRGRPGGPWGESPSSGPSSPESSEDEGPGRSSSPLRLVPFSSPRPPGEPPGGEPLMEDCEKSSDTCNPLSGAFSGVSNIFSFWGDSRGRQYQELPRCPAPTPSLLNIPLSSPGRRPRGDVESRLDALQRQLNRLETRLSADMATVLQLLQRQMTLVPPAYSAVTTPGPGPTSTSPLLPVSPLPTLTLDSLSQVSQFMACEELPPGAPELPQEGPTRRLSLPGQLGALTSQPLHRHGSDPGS
# Chain of Beta-1 adrenergic receptor (P08588 whole entry): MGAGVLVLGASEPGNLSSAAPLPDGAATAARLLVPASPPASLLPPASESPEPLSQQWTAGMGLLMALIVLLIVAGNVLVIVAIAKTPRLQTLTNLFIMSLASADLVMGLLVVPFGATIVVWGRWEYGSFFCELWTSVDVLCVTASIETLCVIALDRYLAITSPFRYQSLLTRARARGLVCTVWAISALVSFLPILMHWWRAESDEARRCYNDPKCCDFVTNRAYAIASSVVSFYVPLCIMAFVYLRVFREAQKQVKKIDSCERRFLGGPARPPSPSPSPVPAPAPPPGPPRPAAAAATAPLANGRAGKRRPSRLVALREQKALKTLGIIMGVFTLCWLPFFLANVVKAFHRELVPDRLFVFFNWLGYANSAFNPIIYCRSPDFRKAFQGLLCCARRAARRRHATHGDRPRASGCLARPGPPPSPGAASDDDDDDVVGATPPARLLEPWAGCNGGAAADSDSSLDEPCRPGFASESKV
Compound,AC50 (Adenosine receptor A1),AC50 [1],AC50 [2],AC50 [3],AC50 ([4]; read-out: AC50),AC50 [5],AC50 (Mu-type opioid receptor),AC50 (Cannabinoid receptor 1),AC50 [6],AC50 [7],"AC50 ([4]; human, cellular components)"
CCC1(C)CC(=O)NC1=O (centres undefined) [ETHOSUXIMIDE],> 10 µM,> 10 µM,> 10 µM,> 10 µM,> 30 µM,> 10 µM,> 30 µM,–,–,–,–
Cc1cccc(Nc2ccncc2S(=O)(=O)NC(=O)NC(C)C)c1 [TORSEMIDE],> 30 µM,> 10 µM,> 10 µM,> 30 µM,> 30 µM,> 10 µM,> 30 µM,–,–,–,–
CC(=O)N1CCN(c2ccc(OCC3COC(Cn4ccnc4)(c4ccc(Cl)cc4Cl)O3)cc2)CC1 (centres undefined) [KETOCONAZOLE],> 30 µM,> 10 µM,> 10 µM,> 10 µM,–,35.2 µM,> 30 µM,> 30 µM,–,–,–
CC1CC(OC(=O)C(O)c2ccccc2)CC(C)(C)C1 (centres undefined) [CYCLANDELATE],> 10 µM,> 10 µM,> 10 µM,> 10 µM,> 30 µM,> 30 µM,> 30 µM,–,–,–,–
CCN(CC)Cc1nccn1-c1ccc([N+](=O)[O-])cc1C(=O)c1ccccc1Cl [NIZOFENONE],> 30 µM,> 30 µM,> 30 µM,> 30 µM,1.38 µM,> 30 µM,–,> 30 µM,> 10 µM,> 30 µM,–
O=C(O)c1nn(Cc2ccc(Cl)cc2Cl)c2ccccc12 [LONIDAMINE],> 30 µM,> 30 µM,> 30 µM,> 30 µM,> 30 µM,> 30 µM,–,> 30 µM,> 30 µM,> 30 µM,–
COc1cc(N)cn[n+]1-c1ccccc1 [AMEZINIUM METILSULFATE],> 30 µM,> 30 µM,> 30 µM,> 30 µM,3.8 µM,> 30 µM,–,> 30 µM,> 30 µM,25 µM,–
Cc1ccc(S(=O)(=O)NC(=O)N[C@H]2[C@H]3CC[C@@](C)([C@H]2O)C3(C)C)cc1 [GLIBORNURIDE],> 30 µM,> 30 µM,> 30 µM,> 30 µM,> 30 µM,> 30 µM,–,> 30 µM,> 30 µM,> 30 µM,–
CCCCCCCC(=O)CC[C@@H]1[C@@H](C/C=C\CCCC(=O)O)[C@@H](O)C[C@H]1O [UNOPROSTONE],> 30 µM,> 30 µM,> 30 µM,> 30 µM,> 30 µM,> 30 µM,–,> 30 µM,> 30 µM,> 30 µM,–
SITOSTEROLS,> 30 µM,> 30 µM,> 30 µM,> 30 µM,–,> 30 µM,–,> 30 µM,> 30 µM,> 30 µM,> 30 µM
CCCCC[C@H](O)CC[C@@H]1[C@H]2Cc3cccc(OCC(=O)O)c3C[C@H]2C[C@H]1O [TREPROSTINIL],> 30 µM,> 30 µM,> 30 µM,> 30 µM,> 30 µM,> 30 µM,–,> 30 µM,> 30 µM,> 30 µM,–
C[C@H](N)C(=O)N[C@@H](CCC(N)=O)C(=O)O [ALANYL GLUTAMINE] (H-Ala-Gln-OH),> 30 µM,> 30 µM,> 30 µM,> 30 µM,> 30 µM,> 30 µM,–,> 30 µM,> 30 µM,> 30 µM,–
CC(=O)Oc1cccc2c1C(=O)c1c(OC(C)=O)cc(C(=O)O)cc1C2=O [DIACEREIN],24 µM,> 30 µM,> 30 µM,> 30 µM,> 30 µM,4.8 µM,–,> 30 µM,> 30 µM,13 µM,–
CCCCOC(=O)C(=O)Nc1cccc(-c2nnn[nH]2)c1 [TAZANOLAST],> 30 µM,> 30 µM,> 30 µM,> 30 µM,> 30 µM,> 30 µM,–,> 30 µM,> 30 µM,> 30 µM,–
CC(=O)OCC1=C(C(=O)O)N2C(=O)[C@@H](NC(=O)Cc3cccs3)[C@H]2SC1 [CEPHALOTHIN],> 30 µM,> 30 µM,> 30 µM,> 30 µM,> 30 µM,> 30 µM,–,> 30 µM,> 30 µM,> 30 µM,–
CO/N=C(\C(=O)N[C@@H]1C(=O)N2C(C(=O)[O-])=C(C[n+]3ccc(N)n3CCO)CS[C@H]12)c1csc(N)n1 [CEFOSELIS],> 30 µM,> 30 µM,> 30 µM,> 30 µM,> 30 µM,> 30 µM,–,> 30 µM,> 30 µM,30 µM,–
Nc1ccc(S(=O)(=O)Nc2ncccn2)cc1 [SULFADIAZINE],> 10 µM,> 10 µM,> 10 µM,> 10 µM,> 30 µM,> 10 µM,> 30 µM,–,–,–,–
CC1=C(/C=C/C(C)=C/C=C/C(C)=C/C(=O)Oc2c(C)c(C)c3c(c2C)CCC(C)(CCCC(C)CCCC(C)CCCC(C)C)O3)C(C)(C)CCC1 (centres undefined) [TRETINOIN TOCOFERIL],> 30 µM,> 30 µM,> 30 µM,> 30 µM,> 30 µM,> 30 µM,–,> 30 µM,> 30 µM,> 30 µM,–
CN(Cc1ccc(C(C)(C)C)cc1)Cc1cccc2ccccc12 [BUTENAFINE],> 10 µM,> 10 µM,> 10 µM,> 10 µM,2.8 µM,> 10 µM,> 30 µM,–,–,–,–
